Measurements: PubChem BioAssay AID1963853 (Molecular Pharmacology Branch, DTP, NCI, 2024)

Test system: 266295-075-R-J1-PDC spheroid viability
Test: Anticancer human tumor 266295-075-R-J1-PDC patient-derived head and neck squamous carcinoma cell line growth inhibition [POLQ]
Conditions: spheroids with HUVEC and MSC; for IC50: curve of first compound; for viability, T/C: stronger effect = lower value
Method in brief: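 PDC + HUVEC + MSC complex spheroids; POLQ inhibitors ± partner drugs; top conc. at/near clinical Cmax, else 10 microM (SN-38 1 microM), half-log dilutions; 37 degrees C, 5% CO2.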
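Note: spheroids exposed to compounds for seven days before readout.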

## CCc1c2c(nc3ccc(O)cc13)-c1cc3c(c(=O)n1C2)COC(=O)[C@]3(O)CC + COC1C(OC(N)=O)C(O)C(Oc2ccc3c(O)c(NC(=O)c4ccc(O)c(CC=C(C)C)c4)c(=O)oc3c2C)OC1(C)C
Second compound 0.0316 µM
  IC50: > 1000 nM
Second compound 0.1 µM
  IC50: > 1000 nM
Second compound 0.316 µM
  IC50: > 1000 nM
Second compound 1 µM
  IC50: > 1000 nM
Second compound 3.16 µM
  IC50: > 1000 nM
Second compound 10 µM
  IC50: > 1000 nM
Second compound 0.0316 µM, first compound 0.00316 µM
  viability, T/C: 91%
Second compound 0.0316 µM, first compound 0.01 µM
  viability, T/C: 109%
Second compound 0.0316 µM, first compound 0.0316 µM
  viability, T/C: 89.8%
Second compound 0.0316 µM, first compound 0.1 µM
  viability, T/C: 105%
Second compound 0.0316 µM, first compound 0.316 µM
  viability, T/C: 96.7%
Second compound 0.0316 µM, first compound 1 µM
  viability, T/C: 70.2%
Second compound 0.1 µM, first compound 0.00316 µM
  viability, T/C: 90.1%
Second compound 0.1 µM, first compound 0.01 µM
  viability, T/C: 99.2%
Second compound 0.1 µM, first compound 0.0316 µM
  viability, T/C: 86.6%
Second compound 0.1 µM, first compound 0.1 µM
  viability, T/C: 103%
Second compound 0.1 µM, first compound 0.316 µM
  viability, T/C: 108%
Second compound 0.1 µM, first compound 1 µM
  viability, T/C: 79.3%
Second compound 0.316 µM, first compound 0.00316 µM
  viability, T/C: 99.7%
Second compound 0.316 µM, first compound 0.01 µM
  viability, T/C: 82.9%
Second compound 0.316 µM, first compound 0.0316 µM
  viability, T/C: 85.6%
Second compound 0.316 µM, first compound 0.1 µM
  viability, T/C: 109%
Second compound 0.316 µM, first compound 0.316 µM
  viability, T/C: 100%
Second compound 0.316 µM, first compound 1 µM
  viability, T/C: 69.7%
Second compound 1 µM, first compound 0.00316 µM
  viability, T/C: 93.5%
Second compound 1 µM, first compound 0.01 µM
  viability, T/C: 79.2%
Second compound 1 µM, first compound 0.0316 µM
  viability, T/C: 91.1%
Second compound 1 µM, first compound 0.1 µM
  viability, T/C: 94.5%
Second compound 1 µM, first compound 0.316 µM
  viability, T/C: 99.5%
Second compound 1 µM, first compound 1 µM
  viability, T/C: 69.9%
Second compound 3.16 µM, first compound 0.00316 µM
  viability, T/C: 84.4%
Second compound 3.16 µM, first compound 0.01 µM
  viability, T/C: 90.6%
Second compound 3.16 µM, first compound 0.0316 µM
  viability, T/C: 97.9%
Second compound 3.16 µM, first compound 0.1 µM
  viability, T/C: 104%
Second compound 3.16 µM, first compound 0.316 µM
  viability, T/C: 96.8%
Second compound 3.16 µM, first compound 1 µM
  viability, T/C: 65.5%
Second compound 10 µM, first compound 0.00316 µM
  viability, T/C: 89.5%
Second compound 10 µM, first compound 0.01 µM
  viability, T/C: 89%
Second compound 10 µM, first compound 0.0316 µM
  viability, T/C: 107%
Second compound 10 µM, first compound 0.1 µM
  viability, T/C: 112%
Second compound 10 µM, first compound 0.316 µM
  viability, T/C: 106%
Second compound 10 µM, first compound 1 µM
  viability, T/C: 55.4%
